Data as given in ChEMBL document CHEMBL2406945, “Integrated Synthesis and Testing of Substituted Xanthine Based DPP4 Inhibitors: Application to Drug Discovery” (ACS Med Chem Lett, 2013).

Assays:
[1] = target: Dipeptidyl peptidase 4 (Sus scrofa) (UniProt P22411); experiment: Inhibition of porcine DPP4 assessed as residual enzyme activity using H-Gly-Pro-AMC as substrate by fluorescence assay
[2] = target: T1, Dipeptidyl peptidase 4 (Sus scrofa, UniProt P22411); experiment: Inhibition of porcine DPP4 using H-Gly-Pro-AMC as substrate by fluorescence assay
[3] = target: T1, Dipeptidyl peptidase 4; experiment: Inhibition of porcine DPP4
[4] = target: Dipeptidyl peptidase 4 (Homo sapiens, UniProt P27487); experiment: Inhibition of human DPP4 using H-Gly-Pro-AMC as substrate by fluorescence assay
Chain of Dipeptidyl peptidase 4 (Homo sapiens, UniProt P27487) (P27487 whole entry): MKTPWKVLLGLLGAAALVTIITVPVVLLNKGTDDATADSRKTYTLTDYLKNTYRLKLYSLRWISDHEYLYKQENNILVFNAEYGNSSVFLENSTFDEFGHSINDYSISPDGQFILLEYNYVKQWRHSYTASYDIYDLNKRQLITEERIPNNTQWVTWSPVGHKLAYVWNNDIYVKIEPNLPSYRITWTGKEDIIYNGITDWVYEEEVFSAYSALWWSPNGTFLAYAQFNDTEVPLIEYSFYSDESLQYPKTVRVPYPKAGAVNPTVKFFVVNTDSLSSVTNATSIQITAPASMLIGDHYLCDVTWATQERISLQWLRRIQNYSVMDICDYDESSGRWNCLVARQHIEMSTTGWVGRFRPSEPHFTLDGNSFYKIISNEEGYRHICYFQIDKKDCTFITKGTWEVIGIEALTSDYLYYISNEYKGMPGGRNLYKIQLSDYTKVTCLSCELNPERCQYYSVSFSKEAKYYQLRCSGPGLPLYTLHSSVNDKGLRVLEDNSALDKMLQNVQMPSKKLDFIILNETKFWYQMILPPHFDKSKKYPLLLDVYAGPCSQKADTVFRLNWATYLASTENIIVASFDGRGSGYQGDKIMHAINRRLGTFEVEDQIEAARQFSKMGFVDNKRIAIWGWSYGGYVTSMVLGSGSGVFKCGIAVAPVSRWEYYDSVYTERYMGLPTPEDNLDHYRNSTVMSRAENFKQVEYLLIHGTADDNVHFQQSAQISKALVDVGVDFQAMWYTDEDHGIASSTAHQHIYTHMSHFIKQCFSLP

Chain of Dipeptidyl peptidase 4 (Sus scrofa) (P22411 whole entry, looked up): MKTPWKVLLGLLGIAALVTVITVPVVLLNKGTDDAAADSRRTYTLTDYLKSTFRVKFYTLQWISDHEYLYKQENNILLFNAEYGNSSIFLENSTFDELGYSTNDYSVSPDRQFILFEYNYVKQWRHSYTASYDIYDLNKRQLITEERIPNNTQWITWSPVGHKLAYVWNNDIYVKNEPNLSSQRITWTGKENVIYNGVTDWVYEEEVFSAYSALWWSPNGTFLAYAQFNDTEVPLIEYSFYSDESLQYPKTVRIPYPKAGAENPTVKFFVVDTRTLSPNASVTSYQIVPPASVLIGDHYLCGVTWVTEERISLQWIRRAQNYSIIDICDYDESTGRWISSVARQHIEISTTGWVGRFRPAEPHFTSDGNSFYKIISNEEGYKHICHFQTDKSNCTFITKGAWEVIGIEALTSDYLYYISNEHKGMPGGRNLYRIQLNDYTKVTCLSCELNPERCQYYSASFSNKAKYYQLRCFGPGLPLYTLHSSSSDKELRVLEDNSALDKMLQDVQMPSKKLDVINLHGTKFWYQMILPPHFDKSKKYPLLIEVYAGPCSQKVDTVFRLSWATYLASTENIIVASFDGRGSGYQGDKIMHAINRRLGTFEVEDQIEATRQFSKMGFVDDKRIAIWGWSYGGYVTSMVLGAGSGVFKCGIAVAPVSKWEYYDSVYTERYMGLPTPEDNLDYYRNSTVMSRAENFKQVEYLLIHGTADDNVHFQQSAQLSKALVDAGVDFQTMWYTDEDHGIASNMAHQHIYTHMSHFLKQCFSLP
T1 sequence (P22411 whole entry): as the sequence (P22411 whole entry, looked up) above

Row | SMILES | Activity [1] [nM] | IC50 [2] [nM] | IC50 [3] [nM] | IC50 [4] [nM]
1 | CC(C)=CCn1c(N2CCNCC2)nc2c1c(=O)n(CC(=O)c1ccccc1)c(=O)n2C | 11 |  |  | 
2 | CC(C)=CCn1c(N2CCC[C@H](N)C2)nc2c1c(=O)n(CC(=O)c1ccccc1)c(=O)n2C | 4 |  |  | 
3 | CC(C)=CCn1c(N2CCC3CNCC32)nc2c1c(=O)n(C)c(=O)n2C (configuration not stated) | 132 | 130 | 210 | 
4 | CC(C)=CCn1c(OCC(C)(C)CN)nc2c1c(=O)n(C)c(=O)n2C | 260 |  |  | 
5 | CC(C)=CCn1c(N2CCC[C@@H](N)C2)nc2c1c(=O)n(C)c(=O)n2C | 11 |  |  | 
6 | CC(C)=CCn1c(OC[C@H]2CCCN2)nc2c1c(=O)n(C)c(=O)n2C | > 7000 |  |  | 
7 | CC(C)=CCn1c(OC2CCNCC2)nc2c1c(=O)n(C)c(=O)n2C | > 5000 |  |  | 
8 | CC(C)=CCn1c(OCCCN)nc2c1c(=O)n(CC(=O)c1ccccc1)c(=O)n2C | 22 |  |  | 
9 | CC(C)=CCn1c(N2CCC[C@H](N)C2)nc2c1c(=O)n(C)c(=O)n2C | 6 |  |  | 
10 | CC(C)=CCn1c(OC[C@H](C)N)nc2c1c(=O)n(C)c(=O)n2C | 780 |  |  | 
11 | CC(C)=CCn1c(OC[C@@H](N)Cc2ccccc2)nc2c1c(=O)n(C)c(=O)n2C | 430 |  |  | 
12 | CC(C)=CCn1c(N2CCNCC2)nc2c1c(=O)n(C)c(=O)n2C | 173 |  |  | 
13 | CC(C)=CCn1c(OC2CCNCC2)nc2c1c(=O)n(CC(=O)c1ccccc1)c(=O)n2C | 275 | 275 | 1100 | > 1000
14 | CC(C)=CCn1c(OC[C@H]2CCCN2)nc2c1c(=O)n(CC(=O)c1ccccc1)c(=O)n2C | 580 | 705 | 2500 | 
15 | CC(C)=CCn1c(O[C@@H]2CCNC2)nc2c1c(=O)n(C)c(=O)n2C | > 7000 |  |  | 
16 | CC(C)=CCn1c(OCC(C)(C)CN)nc2c1c(=O)n(CC(=O)c1ccccc1)c(=O)n2C | 6 | 6.5 | 9 | 
17 | CC(C)=CCn1c(N2CCC[C@@H](N)C2)nc2c1c(=O)n(CC(=O)c1ccccc1)c(=O)n2C | 0.7 | 0.73 | < 40 | 
18 | CC(C)=CCn1c(N2CC3CCNC3C2)nc2c1c(=O)n(C)c(=O)n2C (configuration not stated) | 6000 |  |  | 
19 | CC(C)=CCn1c(OC[C@@H]2CCCN2)nc2c1c(=O)n(CC(=O)c1ccccc1)c(=O)n2C | 2.6 | 16 | 17 | 
20 | CC(C)=CCn1c(O[C@H]2CCNC2)nc2c1c(=O)n(C)c(=O)n2C | > 8000 |  |  | 
21 | CC(C)=CCn1c(OC[C@@H]2CCCN2)nc2c1c(=O)n(C)c(=O)n2C | 1600 |  |  | 
22 | CC(C)=CCn1c(O[C@@H](C)CN)nc2c1c(=O)n(CC(=O)c1ccccc1)c(=O)n2C | 420 |  |  | 
23 | CC(C)=CCn1c(N2CC3CCCNC3C2)nc2c1c(=O)n(CC(=O)c1ccccc1)c(=O)n2C (configuration not stated) | 269 |  |  | 
24 | CC(C)=CCn1c(N2CC3CCCNC3C2)nc2c1c(=O)n(C)c(=O)n2C (configuration not stated) | > 24500 |  |  | 
